Source: paper PMC9516332 (Frontiers in Oncology, 2022)

Key:
Assay in all cases: Kinase panel profiling at 1 µmol/L (MSA or IMAP), percentage inhibition
Type in all cases: biochemical
[1] = target: panel of 255 wild-type kinases (Homo sapiens, UniProt Q9P1W9); settings: kinase PIM2; 1 µmol/L single concentration; read-out: %-inhibition at 1 µmol/L, PIM2
[2] = target: T1, panel of 255 wild-type kinases (Homo sapiens, UniProt O15530); settings: kinase PDK1; 1 µmol/L single concentration; read-out: %-inhibition at 1 µmol/L, PDK1
T1 sequence (O15530 1-556): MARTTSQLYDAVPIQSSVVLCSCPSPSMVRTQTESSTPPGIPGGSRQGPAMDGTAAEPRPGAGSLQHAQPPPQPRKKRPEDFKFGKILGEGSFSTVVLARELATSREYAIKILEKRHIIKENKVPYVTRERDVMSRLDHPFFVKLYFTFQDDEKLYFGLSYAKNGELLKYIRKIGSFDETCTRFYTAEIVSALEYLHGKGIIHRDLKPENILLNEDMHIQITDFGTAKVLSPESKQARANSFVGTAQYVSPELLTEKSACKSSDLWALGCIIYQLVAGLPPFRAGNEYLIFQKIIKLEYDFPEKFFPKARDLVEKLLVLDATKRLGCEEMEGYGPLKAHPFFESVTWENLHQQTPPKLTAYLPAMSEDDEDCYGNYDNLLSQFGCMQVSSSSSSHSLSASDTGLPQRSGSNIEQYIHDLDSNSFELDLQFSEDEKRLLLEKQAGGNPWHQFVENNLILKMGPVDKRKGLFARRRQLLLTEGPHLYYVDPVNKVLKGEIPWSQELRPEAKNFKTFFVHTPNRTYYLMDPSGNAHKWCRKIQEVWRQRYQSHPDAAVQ

[3] = target: T2, panel of 255 wild-type kinases (Homo sapiens, UniProt Q13976); settings: kinase PGK; 1 µmol/L single concentration; read-out: %-inhibition at 1 µmol/L, PGK
T2 sequence (Q13976 1-671): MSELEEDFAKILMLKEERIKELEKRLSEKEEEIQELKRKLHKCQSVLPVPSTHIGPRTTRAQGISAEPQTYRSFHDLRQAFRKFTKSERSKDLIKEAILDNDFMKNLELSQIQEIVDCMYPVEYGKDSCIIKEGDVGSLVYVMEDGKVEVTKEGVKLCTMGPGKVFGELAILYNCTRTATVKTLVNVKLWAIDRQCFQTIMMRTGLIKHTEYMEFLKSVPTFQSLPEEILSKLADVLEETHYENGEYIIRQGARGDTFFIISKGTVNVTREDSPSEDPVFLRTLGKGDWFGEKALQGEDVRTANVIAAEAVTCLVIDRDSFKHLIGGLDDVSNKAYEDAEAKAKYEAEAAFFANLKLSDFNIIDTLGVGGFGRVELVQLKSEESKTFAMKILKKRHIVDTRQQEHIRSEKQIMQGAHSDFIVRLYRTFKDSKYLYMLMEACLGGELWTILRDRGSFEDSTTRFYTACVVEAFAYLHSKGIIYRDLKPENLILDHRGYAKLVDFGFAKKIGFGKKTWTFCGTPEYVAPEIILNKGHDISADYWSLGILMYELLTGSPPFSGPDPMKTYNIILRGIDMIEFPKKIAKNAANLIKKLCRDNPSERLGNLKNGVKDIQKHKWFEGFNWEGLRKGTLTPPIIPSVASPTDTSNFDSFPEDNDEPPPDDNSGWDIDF

[4] = target: panel of 255 wild-type kinases (Homo sapiens, UniProt P09619); settings: kinase PDGFRβ; 1 µmol/L single concentration; read-out: %-inhibition at 1 µmol/L, PDGFRβ
[5] = target: T3, panel of 255 wild-type kinases (Homo sapiens, UniProt Q12851); settings: kinase MAP4K2; 1 µmol/L single concentration; read-out: %-inhibition at 1 µmol/L, MAP4K2
T3 sequence (Q12851 1-820): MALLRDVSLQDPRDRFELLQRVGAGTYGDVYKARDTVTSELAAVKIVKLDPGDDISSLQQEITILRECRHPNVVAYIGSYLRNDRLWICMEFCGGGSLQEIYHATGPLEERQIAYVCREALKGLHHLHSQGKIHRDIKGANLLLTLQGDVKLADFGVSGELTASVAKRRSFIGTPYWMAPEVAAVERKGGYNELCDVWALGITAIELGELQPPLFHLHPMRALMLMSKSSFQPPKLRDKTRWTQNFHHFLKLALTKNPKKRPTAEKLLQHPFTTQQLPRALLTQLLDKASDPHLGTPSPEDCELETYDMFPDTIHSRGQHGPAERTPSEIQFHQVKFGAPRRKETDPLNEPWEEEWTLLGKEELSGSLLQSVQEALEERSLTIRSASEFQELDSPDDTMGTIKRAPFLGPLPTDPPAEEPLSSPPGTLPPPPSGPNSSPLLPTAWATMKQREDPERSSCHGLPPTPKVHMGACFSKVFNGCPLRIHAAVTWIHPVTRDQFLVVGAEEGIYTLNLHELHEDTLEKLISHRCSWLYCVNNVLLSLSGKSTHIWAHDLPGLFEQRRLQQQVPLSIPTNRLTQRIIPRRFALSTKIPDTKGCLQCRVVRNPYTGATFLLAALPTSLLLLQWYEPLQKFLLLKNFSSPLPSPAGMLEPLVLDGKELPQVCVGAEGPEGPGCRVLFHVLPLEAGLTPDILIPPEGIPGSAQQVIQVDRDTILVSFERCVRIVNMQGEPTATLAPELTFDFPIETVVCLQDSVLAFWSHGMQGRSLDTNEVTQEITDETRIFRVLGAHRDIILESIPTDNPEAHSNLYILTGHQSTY

[6] = target: panel of 255 wild-type kinases (Homo sapiens, UniProt Q00534); settings: CDK6/CycD3 kinase assay; 1 µmol/L single concentration; read-out: %-inhibition CDK6/CycD3
[7] = target: panel of 255 wild-type kinases (Homo sapiens, UniProt P51451); settings: BLK kinase assay, 1 µmol/L single concentration

inhibition at 1 µM ([7]; read-out: %-inhibition BLK) | Structure (SMILES) | inhibition at 1 µM [1] | inhibition at 1 µM [2] | inhibition at 1 µM [3] | inhibition at 1 µM [4] | inhibition at 1 µM [5] | inhibition at 1 µM [6] | %-inhibition BLK [7]
2.27% | Cc1cc(Nc2ncnc3ccc(NC4=NC(C)(C)CO4)cc23)ccc1Oc1ccn2ncnc2c1 [tucatinib] | -3.72% | 3% | 0.26% | 31% | 6% | -2.12% | –
– | C=CC(=O)N1CCC([C@@H]2CCNc3c(C(N)=O)c(-c4ccc(Oc5ccccc5)cc4)nn32)CC1 [zanubrutinib] | -7% | 0.547% | -2.64% | 3.39% | -2.68% | 3.49% | 98%
